Results: publication PMC5789083, “Mechanisms driving the antibacterial and antibiofilm properties of Hp1404 and its analogue peptides against multidrug-resistant Pseudomonas aeruginosa” (Scientific Reports, 2018)
Like-named read-outs stand apart in the source and are kept apart here. Where no end group is shown, it is not given here.

What was measured:
[1] = tested on: Pseudomonas aeruginosa and MRPA strains; assay: microbe, parasite or virus in culture; type: cell-based; conditions: broth micro-dilution, 37 °C, 18–24 h
From the text: Gram-negative (Pseudomonas aeruginosa ATCC 27853) bacterial strains were obtained from the ATCC (American Type Culture Collection; Manassas, VA, USA). Multidrug-resistant strains (Pseudomonas aeruginosa 138, 431, 434, 557, 559, 778, 1034, 1162, 3290, 3399, 3592, 3904, 4007, 4319, 4891, 5018, and 671973) were obtained from the Chonnam National University Hospital (Gwangju, South Korea).
(§1) We examined the activity of each peptide against both pseudomonas aeruginosa and multidrug-resistant strains. The minimal inhibitory concentrations (MICs) of peptides were determined using the broth micro-dilution assay as described previously. Briefly, bacterial strains were cultivated with shaking overnight at 37 °C. The next day, they were diluted to a density of 2 × 10^5 CFU/mL with growth medium. Peptides were serially diluted with 10 mM sodium phosphate buffer. 50 µL bacterial aliquots were mixed with an equal volume of peptide solution, and incubated at 37 °C for 18–24 h. Inhibition of bacterial growth was determined by measuring the absorbance at 600 nm using a Versa Max microplate reader (Molecular Devices, Sunnyvale, CA, USA). The test was performed in triplicate.

HaCaT cells = assay: Cytotoxicity, MTT assay; type: cell-based, human; conditions: 50 µM, 24 h
Description: We used the MTT assay to evaluate the toxicity of the peptides toward human skin epithelial cells (HaCaT) as previously described. Briefly, HaCaT cells were seeded at a density of 2 × 10^4 cells per well in 96-well microtiter plates in Dulbecco’s modified Eagle’s medium (DMEM) containing 10% foetal bovine serum (FBS) at 37 °C under 5% CO2 atmosphere. The next day, peptides were added to each well at various final concentrations (higher concentration of 200 µM). After 24 h incubation, culture supernatants were removed. 0.5 mg/mL MTT was added to each well, and the plates were incubated for 4 h at 37 °C. The medium was replaced by dimethyl sulfoxide (DMSO) to dissolve the formazan crystals formed in the wells. The absorbance at 570 nm was measured using a Versa-Max microplate ELISA reader (Molecular Devices). The viability rate was calculated using the following formula: Cell viability (%) = (absorbance of treated sample)/(absorbance of control) × 100.

P. aeruginosa 27853 = type: cell-based, Pseudomonas aeruginosa
Description: as §1
The effects of various cations on the antibacterial activities of the parental and analogue peptides against P. aeruginosa 27853 were evaluated as previously described. Bacteria was treated with peptides at a final concentration 25 µM in the presence of physiological salts such as NaCl (50 mM, 100 mM, and 150 mM), CaCl2 (1.25 mM, 2.5 mM, and 5 mM), or MgCl2 (0.5 mM, 1 mM, and 2 mM). The MIC values were determined as described above.

[2] = tested on: P. aeruginosa strains (biofilm formation); type: cell-based, Pseudomonas aeruginosa; conditions: 24 h, 37 °C, crystal violet OD595
Description: To evaluate the ability of bacterial strains to form biofilms either in the absence or presence of peptides, antibiotic-susceptible P. aeruginosa (ATCC 27853), and various strains of MDR P. aeruginosa were cultured in nutrient broth (NB). […]. The biofilms were fixed with 100% methanol for 15 min, stained with 0.1% crystal violet (CV) for 1 h, and rinsed three times with distilled water (dH2O). After the addition of 95% ethanol, biofilm mass was quantified by measuring OD at 595 nm using a Versa-Max microplate ELISA reader (Molecular Devices). Results were expressed as the percentage of biofilm formed with respect to the control. […] All experiments were performed at least in triplicate.

[3] = P. aeruginosa 138 (multidrug-resistant), triplicate
[4] = P. aeruginosa 431 (multidrug-resistant), triplicate
[5] = P. aeruginosa 434 (multidrug-resistant), triplicate
[6] = P. aeruginosa 557 (multidrug-resistant), triplicate
[7] = P. aeruginosa 559 (multidrug-resistant), triplicate
[8] = P. aeruginosa 778 (multidrug-resistant), triplicate
[9] = P. aeruginosa 1034 (multidrug-resistant), triplicate
[10] = P. aeruginosa 1162 (multidrug-resistant), triplicate
[11] = P. aeruginosa 3290 (multidrug-resistant), triplicate
[12] = P. aeruginosa 3399 (multidrug-resistant), triplicate
[13] = P. aeruginosa 3543 (multidrug-resistant), triplicate
[14] = P. aeruginosa 3592 (multidrug-resistant), triplicate
[15] = P. aeruginosa 3904 (multidrug-resistant), triplicate
[16] = P. aeruginosa 4007 (multidrug-resistant), triplicate
[17] = P. aeruginosa 4319 (multidrug-resistant), triplicate
[18] = P. aeruginosa 4891 (multidrug-resistant), triplicate
[19] = P. aeruginosa 5018 (multidrug-resistant), triplicate
[20] = P. aeruginosa 671973 (multidrug-resistant), triplicate
[21] = P. aeruginosa ATCC 27853, 2 × 10^5 CFU/mL, A600, triplicate
[22] = P. aeruginosa 27853, 5 × 10^5 CFU/mL, 0.2% glucose

Substance | MIC [1, 3] [µM] | MIC [1, 4] [µM] | MIC [1, 5] [µM] | MIC [1, 6] [µM] | MIC [1, 7] [µM] | MIC [1, 8] [µM] | MIC [1, 9] [µM] | MIC [1, 10] [µM] | MIC [1, 11] [µM] | MIC [1, 12] [µM] | MIC [1, 13] [µM] | MIC [1, 14] [µM] | MIC [1, 15] [µM] | MIC [1, 16] [µM] | MIC [1, 17] [µM] | MIC [1, 18] [µM] | MIC [1, 19] [µM] | MIC [1, 20] [µM] | MIC [1, 21] [µM] | survival rate of HaCaT cells (HaCaT cells) [%] | also measured
ILGKLWEGVKSI-NH2 [Hp1404-T1] | >25 | >25 | >25 | >25 | >25 | >25 | >25 | >25 | >25 | >25 | >25 | >25 | >25 | >25 | >25 | >25 | >25 | >25 | >25 | – | –
ILKKLLEGVKSI-NH2 [Hp1404-T1b] | >25 | >25 | 25 | >25 | >25 | >25 | >25 | >25 | >25 | >25 | >25 | 25 | >25 | >25 | >25 | >25 | >25 | >25 | >25 | – | –
ILKKLLKGVKSI-NH2 [Hp1404-T1c] | 25 | 12.5 | 6.25 | 25 | 25 | 6.25 | 6.25 | 3.13 | >25 | 3.13 | >25 | 6.25 | 6.25 | 12.5 | 6.25 | 6.25 | 3.13 | 6.25 | 3.13 | 51 | MIC (P. aeruginosa 27853; CaCl2 1.25 mM): >25 µM; MIC (P. aeruginosa 27853; CaCl2 2.5 mM): >25 µM; MIC (P. aeruginosa 27853; CaCl2 5 mM): >25 µM; MIC (P. aeruginosa 27853; MgCl2 0.5 mM): 12.5 µM; MIC (P. aeruginosa 27853; MgCl2 1 mM): 12.5 µM; MIC (P. aeruginosa 27853; MgCl2 2 mM): >25 µM; MIC (P. aeruginosa 27853; NaCl 50 mM): >25 µM; MIC (P. aeruginosa 27853; NaCl 100 mM): >25 µM; MIC (P. aeruginosa 27853; NaCl 150 mM): >25 µM; MBIC ([2]; P. aeruginosa 434): 50 µM; MBIC ([2]; P. aeruginosa 559): 25 µM; MBIC ([2]; P. aeruginosa 778): 25 µM; MBIC ([2]; P. aeruginosa 1034): 25 µM; MBIC ([2]; P. aeruginosa 1162): 12.5 µM; MBIC ([2]; P. aeruginosa 3399): 25 µM; MBIC ([2]; P. aeruginosa 3543): >50 µM; MBIC ([2]; P. aeruginosa 4007): >50 µM; MBIC [2, 22]: 25 µM
ILKKLWEGVKSI-NH2 [Hp1404-T1a] | >25 | 25 | 25 | >25 | >25 | >25 | >25 | >25 | >25 | 25 | >25 | 12.5 | 25 | >25 | >25 | 25 | >25 | 25 | >25 | – | –
ILKKLLKKVKSI-NH2 [Hp1404-T1d] | 12.5 | 3.13 | 3.13 | 3.13 | 12.5 | 3.13 | 3.13 | 1.56 | 6.25 | 1.56 | 25 | 3.13 | 6.25 | 6.25 | 3.13 | 3.13 | 1.56 | 1.56 | 1.56 | 33 | MIC (P. aeruginosa 27853; CaCl2 1.25 mM): 12.5 µM; MIC (P. aeruginosa 27853; CaCl2 2.5 mM): 25 µM; MIC (P. aeruginosa 27853; CaCl2 5 mM): >25 µM; MIC (P. aeruginosa 27853; MgCl2 0.5 mM): 3.13 µM; MIC (P. aeruginosa 27853; MgCl2 1 mM): 6.25 µM; MIC (P. aeruginosa 27853; MgCl2 2 mM): 12.5 µM; MIC (P. aeruginosa 27853; NaCl 50 mM): 12.5 µM; MIC (P. aeruginosa 27853; NaCl 100 mM): 12.5 µM; MIC (P. aeruginosa 27853; NaCl 150 mM): 25 µM; MBIC ([2]; P. aeruginosa 434): 12.5 µM; MBIC ([2]; P. aeruginosa 559): 12.5 µM; MBIC ([2]; P. aeruginosa 778): 12.5 µM; MBIC ([2]; P. aeruginosa 1034): 12.5 µM; MBIC ([2]; P. aeruginosa 1162): 6.25 µM; MBIC ([2]; P. aeruginosa 3399): 25 µM; MBIC ([2]; P. aeruginosa 3543): >50 µM; MBIC ([2]; P. aeruginosa 4007): 50 µM; MBIC [2, 22]: 12.5 µM
Buforin2 [reference compound] | 12.5 | 6.25 | 6.25 | 6.25 | 12.5 | 12.5 | 6.25 | 12.5 | 6.25 | 12.5 | 12.5 | 3.13 | 6.25 | 12.5 | 12.5 | >25 | 12.5 | 3.13 | 25 | – | –
